Assay [1] relates to biofilm-embedded S. epidermidis. The assay can be described thus: In vitro biofilm-dispersal assay in microcentrifuge tubes (sensitivity of biofilm-embedded cells, CFU plating). The class given is cell-based, Staphylococcus epidermidis. The note with it: 3 h, 37° C.
Assay [2] has as its system A. actinomycetemcomitans planktonic cells. The note with it: SDS; Drake et al. 1992, Wade & Addy 1992; cited from earlier work.
Assay [3] concerns A. actinomycetemcomitans CU1000 biofilms. Put plainly: Biofilm killing assay. The class given is cell-based. The note with it: for decrease in the number of CFU: then 0.01% SDS 5 min. How it is done: Biofilm Killing Assay. […] Tubes were vortexed for 10 s, and 20 μL aliquots of the detached biofilms were transferred to the wells of a flat-bottomed 96-well microtiter plate containing 180 μL of fresh broth. Five serial dilutions (20 μL into 180 μL) were performed directly into adjacent wells. Plates were incubated for 48 h and then rinsed and stained with crystal violet as described above. Wells containing 30-300 biofilm colonies were photographed under a dissecting microscope and counted. In some assays, biofilms were pre-treated with 1 mL of DispersinB™ (20 μg/mL in PBS) for 5 min prior to the SDS treatment. In these assays, a 100 μL quantity of SDS in PBS (at 10 times the test concentration) was added directly to the DispersinB™-treated cell suspension and mixed. After 5 min, tubes were vortexed briefly, and 20-μL aliquots of culture were enumerated as described above. Killing assays were performed in duplicate tubes on at least 5 separate occasions, with similar results.

The subject of assay [4] is biofilm-embedded S. epidermidis. Put plainly: In vitro biofilm killing assay after DispersinB pre-treatment. The class given is cell-based, Staphylococcus epidermidis. The note with it: 37° C. How it is done: An in vitro biofilm assay was performed to determine the effect of DispersinB™ pre-treatment on the susceptibility of S. epidermidis to SDS. S. epidermidis biofilm grown in tubes were pretreated with PBS or DispersinB™ (20 μg/ml) for 30 min, and then treated with SDS (0.2 mg/ml) for 5 min at 37° C. […] However, SDS caused a 1.5 log unit decrease in the number of CFUs in tubes pretreated with […] biofilm embedded cells more susceptible to SDS.
An in vitro biofilm assay was performed to determine the effect of DispersinB™ pre-treatment on the susceptibility of biofilm-embedded S. epidermidis to CHX. S. epidermidis biofilm grown in tubes were pretreated with PBS or DispersinB™ (20 μg/ml) for 30 min, and then treated with CHX (0.2 μg/ml) for 5 min at 37° C. […] However, CHX caused a 1.6 log decrease of CFU in tubes pretreated with DispersinB™. DispersinB™ pretreatment made biofilm-embedded cells more susceptible to CHX.
An in vitro biofilm assay was performed to determine the effect of DispersinB™ pre-treatment on the susceptibility of S. epidermidis to BKC. S. epidermidis biofilm grown in tubes were pretreated with PBS or DispersinB™ (20 μg/ml) for 30 min, and then treated with BKC (0.4 μg/ml) for 60 min at 37° C. […] However, BKC caused a 2.2 log decrease in CFU in tubes pretreated with DispersinB™. DispersinB™ pre-treatment made biofilm-embedded cells more susceptible to BKC.
An in vitro biofilm assay was performed to determine the effect of DispersinB™ pre-treatment on susceptibility of S. epidermidis to silver nanopowder (SNP). S. epidermidis biofilm grown in tubes were pretreated with PBS or DispersinB™ (20 μg/ml) for 30 min, and then treated with SNP (0.03125 μg/ml) for 60 min at 37° C. […] However, SNP caused a 1.5 log decrease in CFU in tubes pretreated with DispersinB™. DispersinB™ pre-treatment made biofilm embedded cells more susceptible to SNP treatment.

Assay [5] has as its system A. actinomycetemcomitans strain CU1000 (wild-type) biofilms. Put plainly: Biofilm detachment assay (crystal violet). The class given is cell-based. An excerpt:
(§1) Bacterial strains, media, and growth conditions. A. actinomycetemcomitans strain CU1000 (serotype f) was isolated from a person with localized aggressive periodontitis (Fine et al., Microbiol. 1999, 145: 1335-1347). […] An isogenic PGA mutant strain HW1018 (CU1000 pgaC::IS903φKan) was isolated by randomly mutagenizing CU1000 with transposon IS903φKan and selecting mutants that produced white colonies on Congo red agar, as previously described (Kaplan et al., 2003; Kaplan et al., J. Bacteriol. 2004, 186: 8213-8220). Like other pgaC mutant strains, HW1018 was completely deficient in PGA production, but still formed tenacious biofilms on plastic surfaces (Kaplan et al., 2004). Bacteria were grown in trypticase soy broth supplemented with […] and 8 g/L glucose. Solid medium was supplemented with 15 g/L agar. All cultures were incubated statically at 37° C. in 10% CO2.
(§2) Biofilm Cultures. Biofilms were grown in 17 mm×100 mm culture tubes (untreated polystyrene; Falcon #352051) or 96-well microtiter plates (tissueculture-treated polystyrene, flat bottoms; Falcon #353072). Culture vessels were inoculated with a 1:10 dilution of inoculum in fresh broth (1 mL for tubes or 200 μL for microplates) and incubated for 24 h.
(§3) Crystal Violet Assay. Biofilm biomass was visualized and quantitated by means of a crystal violet binding assay as previously described (Kaplan et al., Antimicrob. Agents Chemother. 2004, 48: 2633-2636). Briefly, biofilms were rinsed with water to remove loosely attached cells, stained for 1 min with Gram's crystal violet (200 μL for microplates and 1 mL for tubes), rinsed, dried, and photographed. For quantitation of biofilms grown in microplates, biofilms were de-stained with 200 μL of 33% acetic acid for 5 min, and the absorbance of the crystal violet solution was measured directly in the plate by means of a BioRad Benchmark microtiter plate-reader set at 590 nm. Crystal violet binds to bacterial biofilms, but not to polystyrene (O'Toole & Kolter, Mol. Microbiol. 1998, 28: 449-461).
(§4) Biofilm Detachment Assay. Biofilms were rinsed with water and treated with 200 μL (for microplates) or 1 mL (for tubes) of DispersinB™ (20 μg/mL in PBS) or SDS (0.001-1% in PBS). After a five- or 30-minute incubation at 37° C., biofilms were rinsed with water and stained with crystal violet as described above. In some assays, biofilms were first treated with DispersinB™ for 5 or 30 min, rinsed, and then treated with SDS. All detachment assays were performed in duplicate wells or tubes. All assays were performed on at least 3 separate occasions, with similar results.

For assay [6], the system named is A. actinomycetemcomitans strain HW1018 (PGA mutant) biofilms. Put plainly: Biofilm detachment assay (crystal violet). The class given is cell-based. The note with it: 0.1% SDS in PBS, 5 min; tubes and microplate wells.
Source text: as §1, §2, §3, §4

The subject of assay [7] is biofilm embedded S. epidermidis. Put plainly: 12-well microplate biofilm assay with CFU counting. The class given is cell-based, Staphylococcus epidermidis.
Description: In vitro microplate assays were performed to determine the effect of DispersinB and PyrM combination on the growth of biofilm-embedded S. epidermidis. Overnight growth of S. epidermidis in tryptic soy broth (TSB) was used as inoculum. Biofilm was developed in 12-well microplate in the absence and presence of each test compound (1 μg/ml DispersinB or 8 μg/ml PyrM) separately and together (DispersinB+PyrM). The plates were incubated at 37° C. for 24 h. Medium containing planktonic cells in each well was removed gently and rinsed with sterile water. A known volume of water was added to each well and sonicated for seconds. The contents of each well was transferred into a sterile tube, vortexed for a minute, followed by 10-fold serial dilution, and plated on agar plates using a spreader. After incubating the plates at 37° C. for 24 h, colony-forming units (CFU) were counted.
Assay [8] concerns E. coli csrA luxCDABE kan^r biofilm. The assay can be described thus: Bioluminescent E. coli biofilm on filter disc, luminescence. The class given is cell-based. The note with it: Table 4, repeated experiment. An excerpt:
E. coli TRMG1655 [csrA::kan^r] strain was transformed with transposon, mini-TN5 luxCDABE::kan^r for luciferase expression (Kadurugamuwa et al., 2005, Infect. Immun. 73: 3878-3887), and the operon integrated into the chromosome. Integration was confirmed by amplification of the genomic DNA upstream of the transposon by inverse PCR using Ssp1-digested genomic DNA. Primers UTCF1 (5′-[…]-3′; SEQ ID NO:13) and UTCR (5′-[…]-3′; SEQ ID NO:14) were used to amplify the upstream region using Pfu DNA polymerase (Sigma-Oligosynthesis, St. Louis, Mo.). The lux operon is derived from Photorhabdus luminescence and was obtained from Xenogen Inc. (Alameda, Calif.). These bioluminescent bacteria allow real-time monitoring by noninvasive imaging of biofilms, either in vitro or in vivo.
A cell suspension of 10^6 E. coli csrA luxCDABE kan^r was used to inoculate a filter disc (Millipore Corporation, Billerica, Mass.). The E. coli biofilm was maintained in minimal media (M9) supplemented with 50 μg/ml kanamycin and 100 μg/ml ampicillin. The media were changed every day by transferring the disc to new plate. After 3 days, chemoluminescence activity of the established biofilm was measured using a Typhoon™ imaging scanner (General Electric Healthcare Life Sciences) and ImageQuant TL software (Amersham Biosciences, Sunnyvale, Calif.). The measure luminescence directly correlates with the metabolic activity of the biofilm.
Luminescence was measured at day 0 and was used as the control. Following the measurement of luminescence at day 0, each disc was treated with one of the following—media alone (control) and media containing:
Luminescence was measured every 24 hours followed by replacing the media. Thus, every 24 h following the measurement of the luminescence, 10 μl each of the different solutions was applied to the plate and the biofilm disc was placed on top of the drop everyday. The quantitative analysis of the biofilm luminescence from each day was used to compare the biofilm activity after treatment with the different treatments.
The experiments were repeated using the same E. coli strain csrA luxCDABE kan^r and protocols. Biofilm discs were pulsed with media alone (control) and media containing: […]

The subject of assay [9] is biofilm embedded S. aureus. Put plainly: 12-well microplate biofilm assay with CFU counting. The class given is cell-based, Staphylococcus aureus. The note with it: EGCG 100 ng/ml alone versus DispersinB alone. How it is done: An in vitro microplate assays were performed to determine the effects of a DispersinB™ and EGCG combination on the growth of biofilm embedded S. epidermidis and S. aureus. Overnight cultures of each bacterial strain grown in Tryptic Soy Broth (TSB) were used as inoculum. Biofilm was developed in TSB on a 12-well microplate in the absence and presence of each test compound (50 ng DispersinB™ or 100 ng/ml ECCG) separately and together (DispersinB™+EGCG). The plates were incubated at 37° C. for 24 hours. Medium containing planktonic cells in each well was removed gently and rinsed with sterile water. A known volume of water was added to each well and sonicated for 30 seconds. The contents of each well was transferred into a sterile tube, vortexed for a minute, followed by 10-fold serial dilution, and plated on agar plates using a spreader. After incubating the plates at 37° C. for 24 hours, colony forming units (CFU) were counted.

The mark [10] stands for this setting: BisEDT 50 μg/ml, DispersinB 50 μg/ml, phage cocktail 10^8.

The source of these data is patent US8821862B2, “Soluble β-N-acetylglucosaminidase based antibiofilm compositions and uses thereof” (Kane Biotech Inc., priority 2002, dated 2014).

With `OC[C@@H](O)[C@H](O)[C@@H](O)CO` [xylitol], in assay [1] (5% xylitol in combination with DispersinB 20 μg/ml), the “inhibitory effect on biofilm-embedded S. epidermidis” value is recorded as “slightly enhanced the inhibitory effect”.
Regarding `CCCCCCCCCCCCOS(=O)(=O)[O-].[Na+]` [SDS, sodium dodecyl sulfate], the “MIC against planktonic cells” value in [2] was 0.01%. Further, in assay [3] (SDS alone, 0.01%, 5 min, mock pre-treatment), the “killing of A. actinomycetemcomitans biofilms” value is listed as “did not significantly kill”. The “decrease in the number of CFU” value in assay [3] (tubes pre-treated with DispersinB 20 μg/mL for 5 min) worked out at 2 log-unit; in assay [3] (tubes pre-treated with DispersinB 20 μg/mL for 30 min), 4 log-unit. In addition, the “killing of biofilm-embedded S. epidermidis” value in [4] (SDS alone, 0.2 mg/ml, 5 min, PBS pretreatment) was “did not significantly kill”. For the same compound, the “decrease in the number of CFUs” value in assay [4] (tubes pretreated with DispersinB 20 μg/ml 30 min, then SDS 0.2 mg/ml 5 min) was 1.5 log unit. For the same compound, in [5] (0.001-1% SDS, 5 min, microplate wells, mock pretreatment), the “detachment of wild-type biofilms by SDS” value is listed as “resistant to detachment at all concentrations of SDS”. For the same compound, the “attachment of wild-type biofilms” value in assay [5] (0.1% SDS in PBS, 5 min, tubes and microplate wells) is “no effect”. Moreover, the “SDS concentrations at which biofilms were resistant to detachment” value in assay [5] (wild-type biofilms pre-treated with DispersinB 20 μg/mL 30 min, then SDS 5 min, microplate wells) is on record as below 0.04%. Also, the “SDS concentration of transition from SDS-resistant to SDS-sensitive” value in assay [5] (wild-type biofilms pre-treated with DispersinB, same transition expressed in mM) was 1.4 to 2.4 mM. Moreover, the “detachment of PGA mutant biofilms” value in [6] is on record as “rapid detachment”.
For `O=C1C=CC(=O)N1c1ccc2ccc3cccc4ccc1c2c34` [PyrM, N-(1-pyrenyl)maleimide], the “inhibiting the growth of biofilm-embedded S. epidermidis, compound alone” value in [7] (8 μg/ml PyrM alone versus 1 μg/ml DispersinB alone) is “more effective than DispersinB”.
For the compound benzalkonium chloride [BKC], the “killing of biofilm-embedded S. epidermidis” value in assay [4] (BKC alone, 0.4 μg/ml, 60 min, PBS pretreatment) was “did not significantly kill”. In assay [4] (tubes pretreated with DispersinB 20 μg/ml 30 min, then BKC 0.4 μg/ml 60 min), the “decrease in CFU” value turned out to be 2.2 log.
Consider `[H]/N=C(\N/C(=N/[H])NCCCCCCNC(=N)NC(=N)Nc1ccc(Cl)cc1)Nc1ccc(Cl)cc1` [CHX, chlorhexidine], for which, in assay [4] (CHX alone, 0.2 μg/ml, 5 min, PBS pretreatment), the “killing of S. epidermidis biofilm” value is reported as “did not significantly kill”. In assay [4] (tubes pretreated with DispersinB 20 μg/ml 30 min, then CHX 0.2 μg/ml 5 min), the “decrease of CFU” value is 1.6 log.
On to glucose oxidase, for which the “inhibitory effect on biofilm-embedded S. epidermidis” value in assay [1] (glucose oxidase 10 U/m in combination with DispersinB 20 μg/ml) is on record as “enhanced the inhibitory effect”.
With bismuth ethanedithiol [BisEDT], in assay [8] (setting [10]), the “luminescence, Day 1” value is recorded as 245.27 RLU; the “luminescence, Day 2” value is recorded as 83.51 RLU; the “luminescence, Day 3” value stood at 8.02 RLU; the “luminescence, Day 4” value worked out at 47.62 RLU. In addition, the “luminescence, Day 0” value in [8] (Day 0, before treatment (baseline)) is on record as 1815.26 RLU.
For `O=C1C=CC(=O)N1c1ccccc1N1C(=O)C=CC1=O` [oPDM, N,N-(1,2 phenylene)dimaleimide], in assay [7] (625 μg/ml oPDM alone versus 1 μg/ml DispersinB alone), the “inhibiting the growth of biofilm-embedded S. epidermidis, compound alone” value was “more effective than DispersinB”.
Turning to `O=C(O[C@@H]1Cc2c(O)cc(O)cc2O[C@@H]1c1cc(O)c(O)c(O)c1)c1cc(O)c(O)c(O)c1` [EGCG, Epigallocatechin gallate], the “inhibiting the growth of biofilm embedded S. epidermidis, compound alone” value in assay [7] (EGCG 100 ng/ml alone versus DispersinB alone) is “more effective than DispersinB™”. In addition, the “inhibiting the growth of biofilm embedded S. aureus, compound alone” value in assay [9] is recorded as “more effective than DispersinB™”.
